How the values were obtained:
[1] = tested on: IPOSS (Morningglory Spp.); assay: Preemergence herbicidal evaluation; assay type: in vivo, Ipomoea Spp.; details: rated 4-5 weeks after treatment
From the text: (§1) Results of herbicide evaluation are expressed on a rating scale (0-9). The scale is based upon a visual observation of plant stand, vigor, malformation, size, chlorosis and overall plant appearance as compared with a control.
The preemergence herbicidal activity of the test compounds of the present invention is exemplified by the following tests in which the seeds of a variety of monocotyledonous and dicotyledonous plants are separately mixed with potting soil and planted on top of approximately one inch of soil in separate pint cups. After planting, the cups are sprayed with the selected aqueous acetone solution containing test compound in sufficient quantity to provide the equivalent of about 0.0156 to 0.500 kg per hectare of test compound per cup. The treated cups are then placed on greenhouse benches, watered and cared for in accordance with conventional greenhouse procedures. From four to five weeks after treatment, the tests are terminated and each cup is examined and rated according to the rating system provided in Example 37.
The compounds evaluated are reported by compound number given in Example 37.

[2] = tested on: GLXMA (Soybean); assay: Preemergence herbicidal evaluation; assay type: in vivo, Glycine max; details: rated 4-5 weeks after treatment
Summary of the method: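 Herbicidal effect scored visually, 0-9, at 4 to 5 weeks against a control; compound applied preemergence by aqueous acetone spray to seeded soil at about 0.0156 to 0.500 kg/ha.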

[3] = tested on: ORYSAT (Rice, Tebonnet); assay: Rice tolerance to post-transplant applications, flooded paddy conditions (Table IV); assay type: in vivo, Oryza sativa, (L.) Tebonnet; details: in vivo
Summary of the method: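 Herbicidal effect is judged by eye on a 0–9 scale versus control, 3–4 weeks after dosing. Dosing is into flood water kept 1.5–3 cm over the soil, at about 0.0313–0.500 kg/ha in aqueous/acetone 50/50 v/v, on 3–5 cm weeds and 1.5–2.5-leaf rice seedlings.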

[4] = tested on: IPOSS (Morningglory Spp.); assay: Postemergence herbicidal evaluation; assay type: in vivo, Ipomoea Spp.
Method: (§2) In the tests, seedling plants are grown in jiffy flats for about two weeks. The test compounds are dispersed in 50/50 acetone/water mixtures containing 0.5% TWEEN®20, a polyoxyethylene sorbitan monolaurate surfactant of Atlas Chemical Industries, in sufficient quantities to provide the equivalent of about 0.0156 kg to 0.500 kg per hectare of active compound when applied to the plants through a spray nozzle operating at 40 psi for a predetermined time. After spraying, the plants are placed on greenhouse benches and are cared for in accordance with conventional greenhouse procedures. From four to five weeks after treatment, the seedling plants are examined and rated according to the rating system set forth below. Where more than one test is involved for a given compound, the data are averaged.
(§3) Plant species employed in these evaluations are reported by header abbreviation, common name and scientific name.
as §1

[5] = tested on: GALAP (Galium); assay: Postemergence herbicidal evaluation; assay type: in vivo, Galium aparine; details: postemergence
Summary of the method: (§4)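 Two-week seedlings sprayed postemergence at 40 psi; formulation: 1:1 acetone/water, 0.5% TWEEN 20; application ≈0.0156–0.500 kg/ha. Greenhouse grow-out, then 0–9 visual scoring at 4–5 weeks.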

[6] = tested on: ABUTH (Velvetleaf); assay: Postemergence herbicidal evaluation; assay type: in vivo, Abutilon theophrasti; details: postemergence
Summary of the method: as §4

[7] = tested on: ORYSAT (Rice, Tebonnet); assay: Rice tolerance to post-transplant applications, flooded paddy conditions (Table III); assay type: in vivo, Oryza sativa, (L.) Tebonnet; details: in vivo
Summary of the method: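 Injury scored 0-9 by eye against untreated control, judging stand, vigor, malformation, size and chlorosis, three to four weeks after treatment. Compound in 50/50 aqueous/acetone, about 0.0313 to 0.500 kg/ha, was applied to paddy water (1.5 to 3 cm depth) three days after transplanting paired ten-day-old Tebonnet rice seedlings.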

[8] = tested on: MOOVA (Monochoria); assay: Postemergence weed control under flooded paddy conditions; assay type: in vivo, Monochoria vaginalis; details: postemergence weeds, 3-4 weeks after treatment
Summary of the method: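 Injury ratings (0–9 scale covering stand, vigor, malformation, size, chlorosis and overall appearance versus control) were made three to four weeks after treatment. Test material, about 0.0313 to 0.500 kg/ha a.i. in 50/50 v/v aqueous/acetone, was added to flood water 1.5 to 3 cm deep over 3 to 5 cm weeds and 1.5 to 2.5 leaf rice.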

[9] = tested on: GLXMA (Soybean); assay: Postemergence herbicidal evaluation; assay type: in vivo, Glycine max
Method: as §2, §3, §1

## CCC1SC(=Nc2cc(N3C(=O)C4=C(CCCC4)C3=O)c(F)cc2Cl)N(C)C1=O (stereo not shown) [Compound 6, N-{4-chloro-5-[(5-ethyl-3-methyl-4-oxo-2-thiazolidinylidene)amino]-2-fluorophenyl}-1-cyclohexene-1,2-dicarboximide]
[1]; rate 0.1250 kg/ha
  IPOSS preemergence herbicidal rating: 0.0
[1]; rate 0.2500 kg/ha
  IPOSS preemergence herbicidal rating: 0.0
[1]; rate 0.5000 kg/ha
  IPOSS preemergence herbicidal rating: 0.0
[2]; rate 0.1250 kg/ha
  GLXMA preemergence herbicidal rating: 0.0
[2]; rate 0.2500 kg/ha
  GLXMA preemergence herbicidal rating: 0.0
[2]; rate 0.5000 kg/ha
  GLXMA preemergence herbicidal rating: 0.0
[3]
  Herbicidal rating ORYSAT (rice tolerance): 0.0
[4]; rate 0.0157 kg/ha
  IPOSS herbicidal rating: 0.0
[4]; rate 0.0313 kg/ha
  IPOSS herbicidal rating: 0.0
[4]; rate 0.0625 kg/ha
  IPOSS herbicidal rating: 0.0
[4]; rate 0.1250 kg/ha
  IPOSS herbicidal rating: 2.0
[4]; rate 0.2500 kg/ha
  IPOSS herbicidal rating: 4.0
[4]; rate 0.5000 kg/ha
  IPOSS herbicidal rating: 9.0
[5]; rate 0.0157 kg/ha
  GALAP herbicidal rating: 0.0
[5]; rate 0.0313 kg/ha
  GALAP herbicidal rating: 0.0
[5]; rate 0.0625 kg/ha
  GALAP herbicidal rating: 0.0
[5]; rate 0.1250 kg/ha
  GALAP herbicidal rating: 2.0
[5]; rate 0.2500 kg/ha
  GALAP herbicidal rating: 7.0
[5]; rate 0.5000 kg/ha
  GALAP herbicidal rating: 9.0
[6]; rate 0.0157 kg/ha
  ABUTH herbicidal rating: 7.0
[6]; rate 0.0313 kg/ha
  ABUTH herbicidal rating: 8.0
[6]; rate 0.0625 kg/ha
  ABUTH herbicidal rating: 8.0
[6]; rate 0.1250 kg/ha
  ABUTH herbicidal rating: 9.0
[6]; rate 0.2500 kg/ha
  ABUTH herbicidal rating: 9.0
[6]; rate 0.5000 kg/ha
  ABUTH herbicidal rating: 9.0
[7]
  Herbicidal rating ORYSAT (rice tolerance): 0.0
[8]; rate 0.0313 kg/ha
  Herbicidal rating MOOVA: 1.0
[8]; rate 0.0625 kg/ha
  Herbicidal rating MOOVA: 4.0
[8]; rate 0.1250 kg/ha
  Herbicidal rating MOOVA: 4.0
[8]; rate 0.2500 kg/ha
  Herbicidal rating MOOVA: 4.5
[8]; rate 0.5000 kg/ha
  Herbicidal rating MOOVA: 4.5
[9]; rate 0.0157 kg/ha
  GLXMA herbicidal rating: 3.0
[9]; rate 0.0313 kg/ha
  GLXMA herbicidal rating: 3.0
[9]; rate 0.0625 kg/ha
  GLXMA herbicidal rating: 3.0
[9]; rate 0.1250 kg/ha
  GLXMA herbicidal rating: 3.5
[9]; rate 0.2500 kg/ha
  GLXMA herbicidal rating: 4.0
[9]; rate 0.5000 kg/ha
  GLXMA herbicidal rating: 4.0

Source: patent publication US20020137929A1, “1 - (3-heterocyclylphenyl) isothiourea, -isourea, -guanidine and -amidine herbicidal agents” (Intellectual Property Department, BASF Aktiengesellschaft, priority 1998, published 2002)
